The values below come from patent US5519034A, “Tetraisoquinoline compounds which have useful pharmaceutical utility” (The Boots Company PLC, priority 1991, dated 1996).

For one experiment, the target named is T1, D1 dopamine receptors (Rattus norvegicus, UniProt P18901).
T1 construct: Striatal samples from the brains of male Charles River CD rats; from tissue; host or cells: striatum of male Charles River CD rats (washed membrane pellet)
The experiment can be described thus: D1 dopamine receptor binding: inhibition of tritiated SCH 23390 binding, rat striatal samples. Also noted: species or system rat (male Charles River CD rats). The conditions noted are these: rat striatum, tritiated SCH 23390, pH 7.4, 37° C., 30 minutes. Summed up: (§1)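 Rat striatal membranes in Tris-HCl with NaCl, KCl, CaCl2, MgCl2. Filtration, scintillation counting; Ki from displacement IC50 via ligand KD, some D2 Ki estimated from single concentrations.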

For another experiment, the target named is T2, D2 dopamine receptors (Rattus norvegicus, UniProt P61169).
T2 construct: Striatal samples from the brains of male Charles River CD rats; from tissue; host or cells: striatum of male Charles River CD rats (washed membrane pellet)
The experiment can be described thus: D2 dopamine receptor binding: inhibition of tritiated (S)-sulpiride binding, rat striatal samples. The arrangement: species or system rat (male Charles River CD rats). The conditions noted are these: for Ki: rat striatum, tritiated (S)-sulpiride; for Ki for D2 / Ki for D1: ratio to two significant figures. Summed up: as §1

The mark [1] stands for this setting: estimated from single concentration data by Langmuir adsorption isotherm equation, read-out: Ki for D2 binding (marked E).
[2] abbreviates: pH 7.7, 4° C., 40 minutes, > = from highest concentration which displaced ≤50% of the ligand, read-out: Ki for D2 binding.

Molecules are shown by their SMILES. Where two headings read alike, the source gives them in different places. Where only a bound is given, the exact number is not on record here.

T1 sequence (P18901 whole entry): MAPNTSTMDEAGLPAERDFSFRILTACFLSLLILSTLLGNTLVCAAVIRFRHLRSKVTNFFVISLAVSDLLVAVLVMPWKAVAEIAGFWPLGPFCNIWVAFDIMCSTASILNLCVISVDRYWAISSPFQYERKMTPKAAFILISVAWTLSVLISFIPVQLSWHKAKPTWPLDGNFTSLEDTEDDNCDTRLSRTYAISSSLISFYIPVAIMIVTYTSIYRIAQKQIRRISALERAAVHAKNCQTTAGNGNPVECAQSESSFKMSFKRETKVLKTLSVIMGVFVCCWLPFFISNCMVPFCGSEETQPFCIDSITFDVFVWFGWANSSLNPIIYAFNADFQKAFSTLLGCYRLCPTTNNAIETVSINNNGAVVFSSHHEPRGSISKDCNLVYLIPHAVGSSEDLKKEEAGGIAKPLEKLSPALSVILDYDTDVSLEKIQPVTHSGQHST
T2 sequence (P61169 whole entry): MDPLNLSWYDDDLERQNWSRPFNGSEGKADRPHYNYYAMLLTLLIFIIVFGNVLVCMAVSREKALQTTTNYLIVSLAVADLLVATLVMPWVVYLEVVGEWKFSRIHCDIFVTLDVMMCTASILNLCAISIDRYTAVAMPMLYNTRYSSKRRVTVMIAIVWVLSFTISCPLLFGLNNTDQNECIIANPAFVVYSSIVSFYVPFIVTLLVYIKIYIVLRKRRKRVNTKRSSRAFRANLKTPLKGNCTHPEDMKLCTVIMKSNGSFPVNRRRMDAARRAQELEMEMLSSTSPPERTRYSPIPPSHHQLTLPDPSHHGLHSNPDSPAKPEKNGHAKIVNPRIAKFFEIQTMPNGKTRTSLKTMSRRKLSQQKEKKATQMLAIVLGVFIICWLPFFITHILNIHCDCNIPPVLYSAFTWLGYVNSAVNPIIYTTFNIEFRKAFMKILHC

Broadly, the Ki is a measure of affinity in units of concentration, obtained from inhibition or displacement. For the compound `CN1CCc2c(O)cccc2C1C1(c2ccc(Cl)cc2)CCC1` (stereo not shown) [Example 26, 1-[1-(4-chlorophenyl)cyclobutyl]-5-hydroxy-2-methyl-1,2,3,4-tetrahydroisoquinoline], the Ki is 0.56 µM at D1 dopamine receptors and 7 µM at D2 dopamine receptors (setting [1]).
Consider `CN1CCc2cc(Cl)c(O)cc2C1C1(c2ccc(Cl)cc2)CCC1` (stereo not shown) [Example 53, 6-chloro-1-[1-(4-chlorophenyl)cyclobutyl]-7-hydroxy-2-methyl-1,2,3,4-tetrahydroisoquinoline], for which the figures for the Ki at D1 dopamine receptors and at D2 dopamine receptors (setting [2]) were 0.024 µM and 7.6 µM, respectively. Besides, at D2 dopamine receptors, the “Ki for D2 / Ki for D1” value came to 320.
In the same order, the values of `CN1CCc2cc(O)c(O)cc2C1C1(c2ccc(F)cc2)CCC1` (stereo not shown) [Example 3, 1-[1-(4-fluorophenyl)cyclobutyl]-6,7-dihydroxy-2-methyl-1,2,3,4-tetrahydroisoquinoline] are 0.022 µM, 6100 µM and 280000.
As to `CN1CCc2cc(O)c(O)cc2C1C1(c2ccccc2)CCCCC1` (stereo not shown) [Example 29, 6,7-dihydroxy-2-methyl-1-(1-phenylcyclohexyl)-1,2,3,4-tetrahydroisoquinoline], the Ki was 0.12 µM on D1 dopamine receptors and 7 µM at D2 dopamine receptors (setting [1]).
With `CN1CCc2cc(F)c(O)cc2C1C1(c2ccccc2Cl)CCC1` (single isomer, unassigned; (+)) [Example 64, (+)-1-[1-(2-chlorophenyl)cyclobutyl]-6-fluoro-7-hydroxy-2-methyl-1,2,3,4-tetrahydroisoquinoline], the results for the Ki on D1 dopamine receptors and on D2 dopamine receptors (setting [2]) were 0.0024 µM and 4.8 µM, respectively. The “Ki for D2 / Ki for D1” value on D2 dopamine receptors stood at 2000.
As for `COc1cc2c(cc1O)C(C1(c3ccccc3Cl)CC1)N(C)CC2` (stereo not shown) [Example 74, 1-[1-(2-chlorophenyl)cyclopropyl]-7-hydroxy-6-methoxy-2-methyl-1,2,3,4-tetrahydroisoquinoline], the Ki at D1 dopamine receptors turned out to be 0.0015 µM; on D2 dopamine receptors (setting [2]), 1.1 µM. The “Ki for D2 / Ki for D1” value on D2 dopamine receptors was 730.
For `CN1CCc2cc(F)c(O)cc2C1C1(c2ccccc2Cl)CC1` (stereo not shown) [Example 61, 1-[1-(2-chlorophenyl)cyclopropyl]-6-fluoro-7-hydroxy-2-methyl-1,2,3,4-tetrahydroisoquinoline], the inhibition constant (Ki) stood at 0.00018 µM at D1 dopamine receptors and 0.45 µM at D2 dopamine receptors (setting [2]). For the same compound, the “Ki for D2 / Ki for D1” value on D2 dopamine receptors amounted to 2500.
In the same order, the values of `COc1cc2c(cc1O)C(C1(c3ccc(OC(F)(F)F)cc3)CCC1)N(C)CC2` (stereo not shown) [Example 72, 7-hydroxy-6-methoxy-2-methyl-1-[1-(4-trifluoromethoxyphenyl)cyclobutyl]-1,2,3,4-tetrahydroisoquinoline] are 0.047 µM, 9.5 µM and 200.
On the same counts, the results for `COc1cc2c(cc1O)C(C1(c3ccccc3Cl)CCC1)N(C)CC2` (stereo not shown) [Example 69, 1-[1-(2-chlorophenyl)cyclobutyl]-7-hydroxy-6-methoxy-2-methyl-1,2,3,4-tetrahydroisoquinoline] are 0.0021 µM, 5.8 µM and 2800.
For the compound `CCN1CCc2cc(O)c(O)cc2C1C1(c2ccc(Cl)cc2)CCC1` (stereo not shown) [Example 66, 1-[1-(4-chlorophenyl)cyclobutyl]-2-ethyl-6,7-dihydroxy-1,2,3,4-tetrahydroisoquinoline], the inhibition constant (Ki) was 0.12 µM at D1 dopamine receptors and more than 0.5 µM on D2 dopamine receptors (setting [2]). For the same compound, the “Ki for D2 / Ki for D1” value at D2 dopamine receptors is more than 4.2.
On the same counts, the results for `CN1CCc2c(Cl)ccc(O)c2C1C1(c2ccccc2)CCC1` (stereo not shown) [Example 44, 5-chloro-8-hydroxy-2-methyl-1-(1-phenylcyclobutyl)-1,2,3,4-tetrahydroisoquinoline] are 0.13 µM, 4.8 µM and 37.
